US11299497B2, “Substituted tetrahydropyran dihydrothienopyrimidines and their use as phosphodiesterase inhibitors” (UNION therapeutics A/S, priority 2017, dated 2022)

Key:
[1] = target: human PDE41 Dcatalytic domain (UniProt no. Q08499 [S380-L740]) (Homo sapiens (Human), UniProt Q08499); assay: PDE4 Assay (TR-FRET, FAM-cAMP cleavage); type: biochemical; details: human PDE4D catalytic domain, cAMP / FAM-cAMP substrate, read-out: PDE4 IC50 range
Description: The human PDE41 Dcatalytic domain (UniProt no. Q08499 [S380-L740]) was incubated with a mixture of non-labelled cAMP (cyclic adenosine monophosphate) and fluorescein amidite (FAM) conjugated cAMP and titrated test or reference compound. Following brief incubation the enzymatic reaction was stopped by addition of binding buffer containing nanoparticles with immobilized trivalent metal ions capable of binding 1) AMP phospho groups and 2) terbium (Tb) donor fluorophores. Subsequent excitation of the Tb donor triggers time-resolved FRET to adjacent FAM acceptor molecules resulting in light emission. In the presence of a PDE4 inhibitor, AMP generation was reduced resulting in a lower fluorescence signal. The cAMP phosphodiester is not bound by the detection system.
The results were calculated as the molar concentrations resulting in 50/inhibition of the substrate cleavage compared to controls samples, and are expressed as IC50 (nM).

[2] = system: TNF-α release, human peripheral blood mononuclear cells (PBMC); assay: TNF-α Release in LPS-stimulated PBMC; type: cell-based; details: 30 minutes pre-incubation, lipopolysaccharide stimulation 18 hours, TR-FRET, read-out: TNF-α IC50 range
Description: Human peripheral blood mononuclear cells (PBMC) were isolated from buffy coats. The blood is mixed with saline at a ratio of 1:1, and the PBMC were isolated using Lymphoprep Tube™ (Nycomed, Norway). The PBMC were suspended in RPMI1640 with 0.5% human serum albumin, pen/strep and 2 mM L-glutamine at a concentration of 5×105 c/ml. The cells were pre-incubated for 30 minutes with the test compounds in 96 well tissue culture plates and stimulated for 18 hours with lipopolysaccharide 1 mg/ml (Sigma). TNF-α concentration in the supernatants was measured using homogeneous time-resolved fluorescence resonance (TR-FRET). The assay is quantified by measuring fluorescence at 665 nm (proportional to TNF-α concentration) and 620 nm (control).
Results were expressed as IC50 values calculated from inhibition curves using as positive controls the secretion in LPS stimulated wells and as negative controls the secretion in unstimulated cells.

Chain of human PDE41 Dcatalytic domain (Q08499 380-740): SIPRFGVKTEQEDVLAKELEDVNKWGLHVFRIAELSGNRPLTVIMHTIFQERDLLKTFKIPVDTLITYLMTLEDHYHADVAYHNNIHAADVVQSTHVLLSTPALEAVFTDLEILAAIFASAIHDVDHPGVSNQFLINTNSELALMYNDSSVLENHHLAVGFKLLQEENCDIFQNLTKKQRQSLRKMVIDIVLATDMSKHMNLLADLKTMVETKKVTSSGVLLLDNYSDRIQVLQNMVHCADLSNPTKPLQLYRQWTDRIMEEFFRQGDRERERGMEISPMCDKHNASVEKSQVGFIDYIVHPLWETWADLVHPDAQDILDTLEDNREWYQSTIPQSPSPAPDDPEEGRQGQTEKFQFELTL

Row | Compound | IC50 [1] [nM] | IC50 [2] [nM]
1 | CN(CCC1CCOCC1)c1nc2c(c(NC3(C)CCC3)n1)[S+]([O-])CC2 (stereo not drawn) [Example 8, N2-methyl-N4-(1-methylcyclobutyl)-5-oxido-N2-(2-tetrahydropyran-4-ylethyl)-6,7-dihydrothieno[3,2-d]pyrimidin-5-ium-2,4-diamine] | 10 to 50 | < 10
2 | CN(CCC1CCOCC1)c1nc2c(c(NC3COC3)n1)[S+]([O-])CC2 (stereo not drawn) [Example 21, N2-methyl-N4-(oxetan-3-yl)-5-oxido-N2-(2-tetrahydropyran-4-ylethyl)-6,7-dihydrothieno[3,2-d]pyrimidin-5-ium-2,4-diamine] | > 100 | 50 to 100
3 | CC(C)CNc1nc(N(C)CCC2CCOCC2)nc2c1[S+]([O-])CC2 (stereo not drawn) [Example 7, N4-isobutyl-N2-methyl-5-oxido-N2-(2-tetrahydropyran-4-ylethyl)-6,7-dihydrothieno[3,2-d]pyrimidin-5-ium-2,4-diamine] | 10 to 50 | 10 to 50
4 | CN(CCC1CCOCC1)c1nc2c(c(NC3(C)CC3)n1)[S+]([O-])CC2 (stereo not drawn) [Example 14, N2-methyl-N4-(1-methylcyclopropyl)-5-oxido-N2-(2-tetrahydropyran-4-ylethyl)-6,7-dihydrothieno[3,2-d]pyrimidin-5-ium-2,4-diamine] | 10 to 50 | < 10
5 | CN(CCC1CCOCC1)c1nc2c(c(NC3(C#N)CCC3)n1)[S+]([O-])CC2 (stereo not drawn) [Example 10, 1-[[2-[methyl(2-tetrahydropyran-4-ylethyl)amino]-5-oxido-6,7-dihydrothieno[3,2-d]pyrimidin-5-ium-4-yl]amino]cyclobutanecarbonitrile] | 10 to 50 | 10 to 50
6 | CN(CCC1CCOCC1)c1nc2c(c(NC3(CO)CCC3)n1)[S+]([O-])CC2 (stereo not drawn) [Example 23, [1-[[2-[methyl(2-tetrahydropyran-4-ylethyl)amino]-5-oxido-6,7-dihydrothieno[3,2-d]pyrimidin-5-ium-4-yl]amino]cyclobutyl]methanol] | > 100 | > 100
7 | CN(CCC1CCOCC1)c1nc2c(c(NC3CCOCC3)n1)[S+]([O-])CC2 (stereo in doubt) [Example 1, (5R)—N2-methyl-5-oxido-N4-tetrahydropyran-4-yl-N2-(2-tetrahydropyran-4-ylethyl)-6,7-dihydrothieno[3,2-d]pyrimidin-5-ium-2,4-diamine] | 10 to 50 | 10 to 50
8 | CN(CCC1CCOCC1)c1nc2c(c(NC3CCC3)n1)[S+]([O-])CC2 (stereo not drawn) [Example 9, N4-cyclobutyl-N2-methyl-5-oxido-N2-(2-tetrahydropyran-4-ylethyl)-6,7-dihydrothieno[3,2-d]pyrimidin-5-ium-2,4-diamine] | 10 to 50 | 10 to 50
9 | CN(CCC1CCOCC1)c1nc2c(c(NC3CCCCC3)n1)[S+]([O-])CC2 (stereo not drawn) [Example 17, N4-cyclohexyl-N2-methyl-5-oxido-N2-(2-tetrahydropyran-4-ylethyl)-6,7-dihydrothieno[3,2-d]pyrimidin-5-ium-2,4-diamine] | < 10 | < 10
10 | CC[C@H](C)Nc1nc(N(C)CCC2CCOCC2)nc2c1[S+]([O-])CC2 (stereo partly drawn) [Example 12, N2-methyl-N4-[(1S)-1-methylpropyl]-5-oxido-N2-(2-tetrahydropyran-4-ylethyl)-6,7-dihydrothieno[3,2-d]pyrimidin-5-ium-2,4-diamine] | 10 to 50 | 10 to 50
11 | CN(CCC1CCOCC1)c1nc2c(c(NC(C)(C)C)n1)[S+]([O-])CC2 (stereo not drawn) [Example 3, N4-tert-butyl-N2-methyl-5-oxido-N2-(2-tetrahydropyran-4-ylethyl)-6,7-dihydrothieno[3,2-d]pyrimidin-5-ium-2,4-diamine] | 10 to 50 | 10 to 50
12 | CCCNc1nc(N(C)CCC2CCOCC2)nc2c1[S+]([O-])CC2 (stereo not drawn) [Example 4, N2-methyl-5-oxido-N4-propyl-N2-(2-tetrahydropyran-4-ylethyl)-6,7-dihydrothieno[3,2-d]pyrimidin-5-ium-2,4-diamine] | 50 to 100 | 10 to 50
13 | CN(CCC1CCOCC1)c1nc2c(c(NC3CCCC3)n1)[S+]([O-])CC2 (stereo not drawn) [Example 20, N4-cyclopentyl-N2-methyl-5-oxido-N2-(2-tetrahydropyran-4-ylethyl)-6,7-dihydrothieno[3,2-d]pyrimidin-5-ium-2,4-diamine] | < 10 | < 10
14 | CN(CCC1CCOCC1)c1nc2c(c(NC3(CO)CC3)n1)[S+]([O-])CC2 (stereo not drawn) [Example 24, [1-[[2-[methyl(2-tetrahydropyran-4-ylethyl)amino]-5-oxido-6,7-dihydrothieno[3,2-d]pyrimidin-5-ium-4-yl]amino]cyclopropyl]methanol] | > 100 | > 100
15 | CN(CCC1CCOCC1)c1nc2c(c(NC(C)(C)CO)n1)[S+]([O-])CC2 (stereo not drawn) [Example 18, 2-methyl-2-[[2-[methyl(2-tetrahydropyran-4-ylethyl)amino]-5-oxido-6,7-dihydrothieno[3,2-d]pyrimidin-5-ium-4-yl]amino]propan-1-ol] | > 100 | > 100
16 | CC(C)Nc1nc(N(C)CCC2CCOCC2)nc2c1[S+]([O-])CC2 (stereo not drawn) [Example 5, N4-isopropyl-N2-methyl-5-oxido-N2-(2-tetrahydropyran-4-ylethyl)-6,7-dihydrothieno[3,2-d]pyrimidin-5-ium-2,4-diamine] | 10 to 50 | 10 to 50
17 | CCN(CCC1CCOCC1)c1nc2c(c(NC3CCOCC3)n1)[S@@+]([O-])CC2 [Example 2, (5R)—N2-ethyl-5-oxido-N4-tetrahydropyran-4-yl-N2-(2-tetrahydropyran-4-ylethyl)-6,7-dihydrothieno[3,2-d]pyrimidin-5-ium-2,4-diamine] | < 10 | < 10
18 | CN(CCC1CCOCC1)c1nc2c(c(NC3(CO)CCCC3)n1)[S+]([O-])CC2 (stereo not drawn) [Example 22, [1-[[2-[methyl(2-tetrahydropyran-4-ylethyl)amino]-5-oxido-6,7-dihydrothieno[3,2-d]pyrimidin-5-ium-4-yl]amino]cyclopentyl]methanol] | > 100 | > 100
19 | CCNc1nc(N(C)CCC2CCOCC2)nc2c1[S+]([O-])CC2 (stereo not drawn) [Example 19, N4-ethyl-N2-methyl-5-oxido-N2-(2-tetrahydropyran-4-ylethyl)-6,7-dihydrothieno[3,2-d]pyrimidin-5-ium-2,4-diamine] | > 100 | 50 to 100
20 | CCCCNc1nc(N(C)CCC2CCOCC2)nc2c1[S+]([O-])CC2 (stereo not drawn) [Example 6, N4-butyl-N2-methyl-5-oxido-N2-(2-tetrahydropyran-4-ylethyl)-6,7-dihydrothieno[3,2-d]pyrimidin-5-ium-2,4-diamine] | 10 to 50 | 10 to 50
21 | CC[C@@H](C)Nc1nc(N(C)CCC2CCOCC2)nc2c1[S+]([O-])CC2 (stereo partly drawn) [Example 13, N2-methyl-N4-[(1R)-1-methylpropyl]-5-oxido-N2-(2-tetrahydropyran-4-ylethyl)-6,7-dihydrothieno[3,2-d]pyrimidin-5-ium-2,4-diamine] | 10 to 50 | < 10
22 | COc1cccc(Nc2nc(N(C)CCC3CCOCC3)nc3c2[S+]([O-])CC3)c1 (stereo not drawn) [Example 16, N4-(3-methoxyphenyl)-N2-methyl-5-oxido-N2-(2-tetrahydropyran-4-ylethyl)-6,7-dihydrothieno[3,2-d]pyrimidin-5-ium-2,4-diamine] | < 10 | < 10
23 | CN(CCC1CCOCC1)c1nc2c(c(NC3CC4(COC4)C3)n1)[S+]([O-])CC2 (stereo not drawn) [Example 15, N2-methyl-N4-(6-oxaspiro[3.3]heptan-2-yl)-5-oxido-N2-(2-tetrahydropyran-4-ylethyl)-6,7-dihydrothieno[3,2-d]pyrimidin-5-ium-2,4-diamine] | 10 to 50 | < 10
24 | CN(CCC1CCOCC1)c1nc2c(c(NC3(C#N)CC3)n1)[S+]([O-])CC2 (stereo not drawn) [Example 11, 1-[[2-[methyl(2-tetrahydropyran-4-ylethyl)amino]-5-oxido-6,7-dihydrothieno[3,2-d]pyrimidin-5-ium-4-yl]amino]cyclopropanecarbonitrile] | 10 to 50 | 10 to 50
